Tests used:
[1] = Storage stability of the crystal forms (humidity, temperature, dry nitrogen); assay type: physicochemical; settings: for conversion to hydrated or other crystalline forms on storage / stability under humid atmosphere / high relative humidity: stored at high, such as 75% or 90%, relative humidity in air at elevated temperature
Solubility in solvents = assay type: physicochemical
[2] = Water solubility of crystal forms; assay type: physicochemical
[3] = tested on: psychosis and other neuropsychiatric disorders; settings: in vivo; cited from earlier work
[4] = tested on: Alzheimer's Disease patients; settings: cited from earlier work
schizophrenics = settings: cited from earlier work

Clc1ccc2c(c1)N=C(N1CCNCC1)c1ccccc1N2 [8-chloro-11-(1-piperazinyl)-5H-dibenzo[b,e]-[1,4]diazepin]
stability of mixtures of crystal forms A and B [1]: very stable

Clc1ccc2c(c1)N=C(N1CCNCC1)c1ccccc1N2 [Form D, 8-chloro-11-(1-piperazinyl)-5H-dibenzo[b,e]-[1,4]diazepin]
time to formation of Form B on contact with humidity ([1]; contacted with humidity): within hours
stability under exclusion of humidity ([1]; exclusion of humidity, ambient temperature): stable
solubility in solvents (Solubility in solvents): satisfying solubility in solvents

Clc1ccc2c(c1)N=C(N1CCNCC1)c1ccccc1N2 [Form B, 8-chloro-11-(1-piperazinyl)-5H-dibenzo[b,e]-[1,4]diazepin]
stability at elevated temperatures or under dry nitrogen ([1]; elevated temperatures or dry nitrogen, loses its water and is transformed into Form D): unstable
stability under normal conditions ([1]; normal conditions, ambient temperatures): very stable
conversion to hydrated or other crystalline forms on storage [1]: No conversion to other crystalline forms or hydrates was observed
stability under humid atmosphere / high relative humidity [1]: very stable hydrate
water solubility [2]: specially water soluble

Clc1ccc2c(c1)N=C(N1CCNCC1)c1ccccc1N2 [NDMC, 8-chloro-11-(1-piperazinyl)-5H-dibenzo[b,e]-[1,4]diazepin]
effectiveness in the treatment of psychosis and other neuropsychiatric disorders [3]: effective in the treatment of psychosis and other neuropsychiatric disorders

Clc1ccc2c(c1)N=C(N1CCNCC1)c1ccccc1N2 [Form A, 8-chloro-11-(1-piperazinyl)-5H-dibenzo[b,e]-[1,4]diazepin]
physical and chemical stability ([1]; form obtained at ambient temperatures): excellent physical and chemical stability properties
conversion to hydrated or other crystalline forms on storage [1]: does not convert to the hydrated forms or other crystalline forms
stability under humid atmosphere / high relative humidity [1]: very stable under humid atmosphere
water solubility [2]: better water solubility than crystal form B

CCCCCCOc1nsnc1C1=CCCN(C)C1 [Xanomeline]
efficacy in controlling psychosis and related behavioral disturbances [4]: efficacy in controlling psychosis and related behavioral disturbances
adverse motoric effects (schizophrenics; initial clinical studies in schizophrenics): did not induce adverse motoric effects
efficacy in treating schizophrenia (schizophrenics; schizophrenia): efficacious in treating schizophrenia
efficacy against positive and negative symptoms (schizophrenics; schizophrenics): efficacy against both positive and negative symptoms

Source: patent US20060205714A1, “Method of synthesis and isolation of solid N-desmethylclozapine and crystalline forms thereof” (priority 2004, published 2006)
